In ChEMBL document CHEMBL1152055, “Synthesis and biological evaluation of four stereoisomers of PDMP-analogue, N-(2-decylamino-3-hydroxy-3-phenylprop-1-yl)--valienamine, and related compounds” (Bioorg Med Chem Lett, 1997) one finds IC50 data, which are given here for ten molecules.

What is called IC50 is the midpoint of a concentration-inhibition curve. A high value points to weaker potency in that assay.

The target in assay [1] is T1, Ceramide glucosyltransferase (Homo sapiens, UniProt Q16739).
T1 sequence (Q16739 whole entry): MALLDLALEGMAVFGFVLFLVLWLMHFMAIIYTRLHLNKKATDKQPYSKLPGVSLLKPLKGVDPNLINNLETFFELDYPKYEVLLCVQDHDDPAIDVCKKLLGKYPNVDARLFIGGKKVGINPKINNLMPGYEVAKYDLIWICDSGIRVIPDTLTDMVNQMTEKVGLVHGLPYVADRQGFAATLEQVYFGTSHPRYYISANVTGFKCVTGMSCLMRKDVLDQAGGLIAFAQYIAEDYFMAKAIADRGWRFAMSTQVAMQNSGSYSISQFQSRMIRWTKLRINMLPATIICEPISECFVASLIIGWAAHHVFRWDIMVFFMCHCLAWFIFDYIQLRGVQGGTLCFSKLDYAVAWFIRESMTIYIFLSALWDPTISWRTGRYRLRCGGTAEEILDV
Kind of assay: Compound tested for inhibitory activity against glucosylceramide synthase enzyme at a concentration of 1.0*10e-4M; no inhibitory activity.

Assay [2] concerns the target T2, Lysosomal acid glucosylceramidase (Mus musculus, UniProt P17439).
T2 sequence (P17439 whole entry): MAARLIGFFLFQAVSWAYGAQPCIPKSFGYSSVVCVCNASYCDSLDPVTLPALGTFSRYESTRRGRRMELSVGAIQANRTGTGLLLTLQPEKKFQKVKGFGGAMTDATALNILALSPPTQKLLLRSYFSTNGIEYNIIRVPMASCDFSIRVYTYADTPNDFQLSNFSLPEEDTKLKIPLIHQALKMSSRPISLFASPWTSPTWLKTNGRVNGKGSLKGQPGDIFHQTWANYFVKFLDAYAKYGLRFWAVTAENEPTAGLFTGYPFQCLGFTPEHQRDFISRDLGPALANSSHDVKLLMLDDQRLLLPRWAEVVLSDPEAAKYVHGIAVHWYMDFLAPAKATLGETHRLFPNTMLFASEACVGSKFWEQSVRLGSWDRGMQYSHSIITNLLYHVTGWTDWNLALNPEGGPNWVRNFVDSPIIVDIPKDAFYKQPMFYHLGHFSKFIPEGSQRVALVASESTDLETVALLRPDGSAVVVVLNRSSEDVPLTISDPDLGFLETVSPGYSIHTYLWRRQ
The assay is described as follows: Compound tested for inhibitory activity against beta-glucocerebrosidase enzyme.

The target of assay [3] is T2, Lysosomal acid glucosylceramidase. Kind of assay: Compound tested for inhibitory activity against beta-glucocerebrosidase enzyme at a concentration of 1.0*10e-4M; no inhibitory activity.
Assay [4] deals with T1, Ceramide glucosyltransferase. Kind of assay: Compound tested for inhibitory activity against glucosylceramide synthase enzyme.

Take `CCCCCCCCCC(=O)N[C@H](CN[C@@H]1C=C(CO)[C@@H](O)[C@H](O)[C@@H]1O)[C@H](O)c1ccccc1`: the results for the IC50 result in assay [1] and in assay [2] were “No inhibition” and 700 nM, respectively.
For the molecule `CCCCCCCCCC(=O)N[C@H](CN[C@H]1C=C(CO)[C@@H](O)[C@H](O)[C@@H]1O)[C@H](O)c1ccccc1`, the IC50 result in assay [3] and in assay [1] was “No inhibition” throughout.
Consider `CCCCCCCCCC(=O)N[C@@H](CN[C@@H]1C=C(CO)[C@@H](O)[C@H](O)[C@@H]1O)[C@@H](O)c1ccccc1`, for which the IC50 result in assay [1] was “No inhibition”; in assay [2], 300 nM.
Regarding `CCCCCCCCCC(=O)N[C@H](CN[C@@H]1C=C(CO)[C@@H](O)[C@H](O)[C@@H]1O)[C@@H](O)c1ccccc1`, the 50% inhibitory concentration (IC50) entry was “No inhibition” in assay [1] and 700 nM in assay [2].
In the same order, the values of `CCCCCCCCCC(=O)N[C@@H](CN[C@@H]1C=C(CO)[C@@H](O)[C@H](O)[C@@H]1O)[C@H](O)c1ccccc1` are “No inhibition” and 500 nM.
For `CCCCCCCCCC(=O)N[C@H](CN1CCOCC1)[C@H](O)c1ccccc1`, the IC50 entry in assay [3] is “No inhibition”; in assay [4], 23 µM.
`CCCCCCCCCC(=O)N[C@@H](CNC1CC(CO)C(O)C(O)C1O)[C@H](O)c1ccccc1` (stereo not given in full): the IC50 entry is “No inhibition” in assay [1] and 5000 nM in assay [2].
On to `CCCCCCCCCC(=O)N[C@@H](CNC1CC(CO)C(O)C(O)C1O)[C@@H](O)c1ccccc1` (stereo not given in full), for which the IC50 entry in assay [1] is “No inhibition”; in assay [2] it was 20000 nM.
With `CCCCCCCCCC(=O)N[C@H](CNC1CC(CO)C(O)C(O)C1O)[C@@H](O)c1ccccc1` (stereo not given in full), the results for the IC50 entry in assay [1] and in assay [2] were “No inhibition” and 7000 nM, respectively.
In the same order, the values of `CCCCCCCCCC(=O)N[C@H](CNC1CC(CO)C(O)C(O)C1O)[C@H](O)c1ccccc1` (stereo not given in full) are “No inhibition” and 10000 nM.
